One block for each compound: values may come before it.
Assays:
[1] = biological target: Substance-P receptor (Homo sapiens) (UniProt P25103); test: Selectivity interaction (Panel of kinases, GPCRs, ion channels and transporters (enzymatic assay)) EUB0000266bCl TACR1
[2] = biological target: Protein kinase C theta type (Homo sapiens, UniProt Q04759); test: Selectivity interaction (ProQinase) EUB0000171b PRKCQ
[3] = biological target: Serine/threonine-protein kinase pim-3 (Homo sapiens) (UniProt Q86V86); test: Selectivity interaction (ProQinase) EUB0000171b PIM3
[4] = biological target: RAF proto-oncogene serine/threonine-protein kinase (Homo sapiens) (UniProt P04049); settings: at 10 µM
[5] = biological target: Bromodomain-containing protein 9 (Homo sapiens) (UniProt Q9H8M2); test: Selectivity interaction (Bromodomain panel (DSF asssay)) EUB0000270b BRD9
[6] = biological target: T1, Cytoplasmic tyrosine-protein kinase BMX (Homo sapiens) (UniProt P51813); test: Selectivity interaction (KinomeScan (DiscoverX)) EUB0000092b BMX; settings: at 10 µM
T1 sequence (whole entry): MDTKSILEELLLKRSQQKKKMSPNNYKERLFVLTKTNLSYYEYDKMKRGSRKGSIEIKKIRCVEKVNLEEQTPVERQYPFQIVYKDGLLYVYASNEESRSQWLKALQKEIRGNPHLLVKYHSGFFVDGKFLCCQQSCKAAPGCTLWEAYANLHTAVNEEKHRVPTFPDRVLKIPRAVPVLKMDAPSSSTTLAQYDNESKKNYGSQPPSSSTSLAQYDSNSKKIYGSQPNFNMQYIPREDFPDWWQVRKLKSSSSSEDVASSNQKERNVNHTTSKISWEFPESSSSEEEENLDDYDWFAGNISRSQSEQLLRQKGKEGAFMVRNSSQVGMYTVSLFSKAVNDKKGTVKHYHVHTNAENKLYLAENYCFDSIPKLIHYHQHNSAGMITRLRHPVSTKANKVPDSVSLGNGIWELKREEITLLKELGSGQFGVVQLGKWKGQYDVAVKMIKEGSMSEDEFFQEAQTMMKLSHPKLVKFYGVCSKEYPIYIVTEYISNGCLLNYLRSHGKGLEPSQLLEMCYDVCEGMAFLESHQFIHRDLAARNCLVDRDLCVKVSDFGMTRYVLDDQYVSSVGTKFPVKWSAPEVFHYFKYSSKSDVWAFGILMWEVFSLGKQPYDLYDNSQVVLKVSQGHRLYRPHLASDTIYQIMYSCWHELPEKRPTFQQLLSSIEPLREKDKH

[7] = biological target: T2, Serine/threonine-protein kinase TAO1 (Homo sapiens) (UniProt Q7L7X3); test: Selectivity interaction (KinomeScan (DiscoverX)) EUB0000618a TAOK1; settings: at 10 µM
T2 sequence (whole entry): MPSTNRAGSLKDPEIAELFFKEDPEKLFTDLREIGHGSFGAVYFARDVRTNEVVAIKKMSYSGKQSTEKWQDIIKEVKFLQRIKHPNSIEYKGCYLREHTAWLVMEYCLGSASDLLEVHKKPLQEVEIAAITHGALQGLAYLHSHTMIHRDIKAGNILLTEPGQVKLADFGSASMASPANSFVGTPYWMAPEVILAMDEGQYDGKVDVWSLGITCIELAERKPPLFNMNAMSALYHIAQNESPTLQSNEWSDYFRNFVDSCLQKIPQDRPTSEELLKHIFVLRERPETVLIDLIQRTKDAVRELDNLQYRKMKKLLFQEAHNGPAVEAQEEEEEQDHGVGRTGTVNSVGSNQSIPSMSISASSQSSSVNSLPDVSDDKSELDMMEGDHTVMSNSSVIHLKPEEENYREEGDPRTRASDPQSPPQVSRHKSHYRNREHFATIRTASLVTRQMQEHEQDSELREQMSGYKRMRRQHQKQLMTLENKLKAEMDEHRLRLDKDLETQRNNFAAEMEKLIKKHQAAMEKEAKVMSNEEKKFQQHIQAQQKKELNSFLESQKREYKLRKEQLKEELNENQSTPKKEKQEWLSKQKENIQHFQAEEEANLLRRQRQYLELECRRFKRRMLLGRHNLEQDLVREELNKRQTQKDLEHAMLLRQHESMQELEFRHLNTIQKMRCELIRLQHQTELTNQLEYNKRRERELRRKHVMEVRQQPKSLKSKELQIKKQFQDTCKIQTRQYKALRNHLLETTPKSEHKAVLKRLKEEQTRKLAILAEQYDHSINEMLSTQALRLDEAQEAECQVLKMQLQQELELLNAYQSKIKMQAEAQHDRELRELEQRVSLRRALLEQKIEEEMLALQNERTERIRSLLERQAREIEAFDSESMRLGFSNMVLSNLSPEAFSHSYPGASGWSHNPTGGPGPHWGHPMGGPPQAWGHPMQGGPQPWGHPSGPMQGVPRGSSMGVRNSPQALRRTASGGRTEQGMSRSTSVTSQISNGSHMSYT

Sequence of Protein kinase C theta type (Q04759 whole entry, looked up): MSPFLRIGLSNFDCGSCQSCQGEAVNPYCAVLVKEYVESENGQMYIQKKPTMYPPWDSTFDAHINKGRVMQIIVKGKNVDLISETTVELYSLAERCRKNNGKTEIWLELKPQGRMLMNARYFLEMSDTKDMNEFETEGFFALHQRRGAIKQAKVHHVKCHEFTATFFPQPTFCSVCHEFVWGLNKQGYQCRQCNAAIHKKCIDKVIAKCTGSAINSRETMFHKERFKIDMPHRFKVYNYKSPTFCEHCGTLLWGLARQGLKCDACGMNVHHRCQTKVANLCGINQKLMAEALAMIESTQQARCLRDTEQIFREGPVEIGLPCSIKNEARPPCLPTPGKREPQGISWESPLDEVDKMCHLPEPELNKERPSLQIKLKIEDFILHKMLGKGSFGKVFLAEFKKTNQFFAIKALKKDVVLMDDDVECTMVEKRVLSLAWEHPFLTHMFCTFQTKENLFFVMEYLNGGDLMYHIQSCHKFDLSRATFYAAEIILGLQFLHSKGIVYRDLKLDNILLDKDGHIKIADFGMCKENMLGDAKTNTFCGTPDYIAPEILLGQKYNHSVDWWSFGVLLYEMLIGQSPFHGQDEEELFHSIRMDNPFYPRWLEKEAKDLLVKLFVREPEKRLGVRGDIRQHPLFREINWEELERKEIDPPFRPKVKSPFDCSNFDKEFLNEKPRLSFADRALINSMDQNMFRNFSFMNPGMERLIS
Sequence of Bromodomain-containing protein 9 (Homo sapiens) (Q9H8M2 whole entry): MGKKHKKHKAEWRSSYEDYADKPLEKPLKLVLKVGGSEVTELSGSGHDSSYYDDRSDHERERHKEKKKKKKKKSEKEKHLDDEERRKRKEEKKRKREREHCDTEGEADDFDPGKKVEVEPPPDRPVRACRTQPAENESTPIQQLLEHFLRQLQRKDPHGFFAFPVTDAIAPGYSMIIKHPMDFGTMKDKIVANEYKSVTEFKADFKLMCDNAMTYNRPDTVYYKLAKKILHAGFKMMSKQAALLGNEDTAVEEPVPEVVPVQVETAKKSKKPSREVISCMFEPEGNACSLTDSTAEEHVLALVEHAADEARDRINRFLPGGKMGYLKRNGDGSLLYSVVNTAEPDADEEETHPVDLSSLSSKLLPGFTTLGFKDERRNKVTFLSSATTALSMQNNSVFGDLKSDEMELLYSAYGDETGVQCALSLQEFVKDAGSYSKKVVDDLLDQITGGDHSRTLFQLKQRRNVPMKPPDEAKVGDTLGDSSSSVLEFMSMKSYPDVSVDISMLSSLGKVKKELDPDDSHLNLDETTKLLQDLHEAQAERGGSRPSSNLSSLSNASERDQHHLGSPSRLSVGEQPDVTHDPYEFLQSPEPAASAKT
Sequence of RAF proto-oncogene serine/threonine-protein kinase (Homo sapiens) (P04049 whole entry): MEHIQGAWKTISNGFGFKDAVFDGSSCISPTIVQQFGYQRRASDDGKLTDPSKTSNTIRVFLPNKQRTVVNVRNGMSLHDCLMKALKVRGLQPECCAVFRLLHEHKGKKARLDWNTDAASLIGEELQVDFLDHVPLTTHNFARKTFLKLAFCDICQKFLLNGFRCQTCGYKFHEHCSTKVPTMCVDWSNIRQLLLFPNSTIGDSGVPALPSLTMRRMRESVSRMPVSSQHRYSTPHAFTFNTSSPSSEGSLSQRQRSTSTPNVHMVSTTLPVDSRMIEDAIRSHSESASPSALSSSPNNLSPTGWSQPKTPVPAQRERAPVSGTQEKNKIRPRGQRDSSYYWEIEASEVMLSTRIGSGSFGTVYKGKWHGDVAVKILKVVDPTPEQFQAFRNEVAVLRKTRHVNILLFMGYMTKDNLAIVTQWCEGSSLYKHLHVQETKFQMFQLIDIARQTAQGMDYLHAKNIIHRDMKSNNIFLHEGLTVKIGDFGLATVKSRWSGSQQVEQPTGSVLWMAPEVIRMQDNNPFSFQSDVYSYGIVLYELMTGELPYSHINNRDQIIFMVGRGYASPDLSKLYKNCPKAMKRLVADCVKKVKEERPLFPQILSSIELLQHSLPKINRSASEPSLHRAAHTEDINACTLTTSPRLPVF
Sequence of Substance-P receptor (Homo sapiens) (P25103 whole entry): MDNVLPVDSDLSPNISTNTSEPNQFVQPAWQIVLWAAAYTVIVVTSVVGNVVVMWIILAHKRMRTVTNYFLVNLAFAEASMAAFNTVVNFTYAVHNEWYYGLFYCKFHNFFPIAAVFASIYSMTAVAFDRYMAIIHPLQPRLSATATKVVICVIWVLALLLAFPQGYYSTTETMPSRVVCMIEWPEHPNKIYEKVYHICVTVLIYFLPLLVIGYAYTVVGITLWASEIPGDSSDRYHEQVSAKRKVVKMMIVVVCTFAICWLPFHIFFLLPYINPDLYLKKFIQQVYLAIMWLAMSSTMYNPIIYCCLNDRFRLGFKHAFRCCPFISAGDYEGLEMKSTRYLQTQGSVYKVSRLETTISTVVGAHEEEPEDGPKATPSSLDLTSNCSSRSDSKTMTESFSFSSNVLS

pXC50 [1]: < 4.4 M
Structure (SMILES): CCn1c(-c2nc3cc(C(=O)N4CCCC(N)C4)ccc3n2C)cc2ccccc21 (centres undefined)

% of control ([2]; at 1 µM): 97% | % of control ([2]; at 5 µM): 96% | % of control ([3]; at 1 µM): 93% | % of control ([3]; at 5 µM): 82%
Structure (SMILES): C=CC(=O)Nc1cccc(C(=O)Nc2ccc(Nc3cc(-c4[nH]c(SC)nc4C)ccn3)cc2)c1

Structure (SMILES): CN(C)CCOc1ccc(-c2nc(-c3ccncc3)c(-c3ccc4c(c3)CC/C4=N\O)[nH]2)cc1
% of control [4]: 0%

dTM [5]: -1.14 K
Structure (SMILES): Cc1cc(CN)cc(C)c1-c1ncn(C)c1-c1cncn1C

Structure (SMILES): CCC(=O)N1CCN(c2ccc(-n3c(=O)ccc4cnc5ccc(-c6cnc7ccccc7c6)cc5c43)cc2C(F)(F)F)CC1
% of control [6]: 59%

Structure (SMILES): O[C@H]1CC[C@H](Nc2ncc3nc(Nc4c(F)cc(F)cc4F)n([C@H]4CCOC4)c3n2)CC1
% of control [7]: 81%
